Results published in patent US20240000794A1, “LACTAM AND LACTONE DERIVATIVES FOR USE IN THE TREATMENT OF A VIRAL INFECTION SUCH AS COVID-19” (UNIVERSITÉ CATHOLIQUE DE LOUVAIN, priority 2020, published 2024).
Like-named read-outs stand apart in the source and are kept apart here.

Legend:
SARS-CoV-2 [1] = type: cell-based; details: Caco-2 cells, MOI 0.01, 24 hours post-infection
SARS-CoV-2 [2] = type: cell-based; details: Caco-2 cells; for reduction of virus production in the supernatants: after 8, 12 and 24 h, at concentrations as low as 1μM; for reduction of SARS-Cov2 RNA levels in infected cells: after 4 hours
SARS-CoV-2 Mpro = SARS-CoV-2 Mpro (Severe acute respiratory syndrome coronavirus 2, UniProt P0DTD1); type: biochemical
SARS-CoV-2 [3] = type: cell-based; details: 100 μM compound, 24 hours post-infection
SARS-CoV-2 [4] = type: cell-based; details: Calu-3 human lung cells, MOI 0.01, 24 hours post-infection
SARS-CoV-2 [5] = type: cell-based; details: primary bronchial epithelial cells, 10 μM or 1 μM, 48 h post-infection
SARS-CoV-2 [6] = type: cell-based; details: primary nasal epithelial cells, 10 μM or 1 μM, 48 h post-infection
[7] = test system: syncytia formation in SARS-CoV-2 infected Vero cells; type: cell-based
[8] = test system: syncytia formation in SARS-CoV-2 infected A549-ACE2/TMPRSS2 cells; type: cell-based
HCoV-OC43 = type: cell-based; details: 10 μM, HRT-18G cells

| SMILES | lowest concentration reducing the infectivity of SARS-CoV-2 (SARS-CoV-2 [1]) [nM] | reduction of virus production in the supernatants (SARS-CoV-2 [2]) | reduction of SARS-Cov2 RNA levels in infected cells (SARS-CoV-2 [2]) | inhibition of SARS-CoV-2 Mpro (SARS-CoV-2 Mpro; 10 μM compound, Mpro at 2 μM) | inhibition of SARS-CoV-2 Mpro (SARS-CoV-2 Mpro; 100 μM compound) | infectivity of SARS-CoV2 in Vero cells (SARS-CoV-2 [3]) | lowest concentration reducing the infectivity of SARS-CoV-2 (SARS-CoV-2 [4]) [nM] | SARS-Cov2 RNA levels in infected cells (SARS-CoV-2 [5]) | virus production (supernatants titered on Vero cells) (SARS-CoV-2 [5]) | SARS-Cov2 RNA levels in infected cells (SARS-CoV-2 [6]) | virus production (supernatants titered on Vero cells) (SARS-CoV-2 [6]) | syncytia formation (fusion index) [7] | syncytia formation (fusion index) [8] | activity on HCov-OC43 (HCoV-OC43) |
| --- | --- | --- | --- | --- | --- | --- | --- | --- | --- | --- | --- | --- | --- | --- |
| O=C1CCC[C@@H](C(=O)O)N1 [lactam 3, (S)-6-oxopiperidine-2-carboxylic acid] | 15 | about 100 fold | about 20% |  |  |  |  |  |  |  |  |  |  |  |
| O=C1CSC[C@@H](C(=O)O)N1 [lactam 2, (R)-5-oxothiomorpholine-3-carboxylic acid] | 45 | about 100 fold | about 20% | about 50% | complete inhibition | reducing the infectivity | 45 | reduction in SARS-Cov2 RNA levels | reduction of virus production | reduction in SARS-Cov2 RNA levels | reduction of virus production | reducing syncytia formation | reducing syncytia formation | active |
